Read-outs that look alike come from different tables or passages of the source.
Molecular target: T1, HIF-2α HIS TAG-PASB Domain (Homo sapiens, UniProt Q99814)
T1 construct: 100 nM HIF-2α HIS TAG-PASB Domain
Assay: HIF-2α Scintillation Proximity Assay (SPA)
Type: binding
Description: The total assay volume was about 100 μL in the following configuration: 2 μL compound in 100% DMSO, 88 μL buffer with protein and probe and 10 μL of SPA beads. […] The percent inhibition was determined and IC50 values were calculated using the Dotmatics system based on the following equation: % inhibition=[(high control−sample)/(high control−low control)]×100.

[1] = read-out: Scintillation Proximity Assay IC50
[2] = Scintillation Proximity Assay IC50 (nM)

T1 sequence (Q99814 240-350 limits assumed): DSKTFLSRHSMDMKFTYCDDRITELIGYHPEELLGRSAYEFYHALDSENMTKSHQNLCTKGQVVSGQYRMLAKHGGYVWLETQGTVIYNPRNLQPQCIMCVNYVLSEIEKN

## CNS(=O)(=O)c1ccc(Oc2cc(F)cc(F)c2)c2c1C(O)CC2 (stereo not drawn) [Compound 211]
[1]
  IC50: > 1000 nM

## O=C1c2c(C(F)(F)F)ccc(OCC(F)F)c2CC1(F)F [Compound 695]
[1]
  IC50: > 1000 nM

## N#Cc1cc(F)cc(Oc2ccc3c(c2C(F)F)C(=O)C(F)(F)S3(=O)=O)c1 [Compound 385]
[2]
  IC50: > 1000 nM

## NS(=O)(=O)c1ccc(Oc2cc(F)cc(F)c2)c2c1C(O)CC2 (stereo not drawn) [Compound 257]
[1]
  IC50: > 1000 nM

## CS(=O)(=O)c1ccc(O[C@H]2C[C@@H](C(N)=O)C2)c2c1[C@H](O)C(F)(F)[C@@H]2F [Compound 763]
[1]
  IC50: > 1000 nM

## N#Cc1cc(F)cc(Oc2ccc(S(=O)(=O)C(F)F)c(C#N)c2Br)c1 [Compound 77]
[1]
  IC50: > 1000 nM

## N#Cc1cc(F)cc(Oc2ccc3c(c2C(F)F)C(O)(C(F)(F)F)C(F)(F)S3(=O)=O)c1 (stereo not drawn) [Compound 445]
[1]
  IC50: > 1000 nM

## COCCCOc1ccc(S(=O)(=O)C(F)(F)F)c2c1CCC2O (stereo not drawn) [Compound 600]
[1]
  IC50: > 1000 nM

## CS(=O)(=O)c1ccc(Oc2cc(F)cc(C#N)c2)c2c1C(O)C1(CC1)C2 (stereo not drawn) [Compound 217]
[1]
  IC50: > 1000 nM

## CS(=O)(=O)c1ccc(Oc2ccc(F)c(C#N)c2)c2c1[C@H](O)C(F)(F)[C@@H]2F [Compound 327]
[1]
  IC50: < 50 nM

## O=C1CS(=O)(=O)c2ccc(Oc3cc(F)cc(F)c3)cc21 [Compound 417]
[1]
  IC50: > 1000 nM

## N#Cc1cc(F)cc(Oc2ccc3c(c2C(F)F)C(=N)C(F)S3(=O)=O)c1 (stereo not drawn) [Compound 373]
[1]
  IC50: > 1000 nM

## N#Cc1cc(F)cc(Oc2ccc3c(c2Br)[C@@H](O)C(F)(F)S3(=O)=O)c1 [Compound 347]
[1]
  IC50: < 50 nM

## CS(=O)(=O)N1CC(Oc2ccc(S(=O)(=O)C(F)(F)F)c3c2CC(F)(F)[C@H]3O)C1 [Compound 793]
[1]
  IC50: > 1000 nM

## CS(=O)(=O)c1ccc(Nc2ccc(F)cc2)c2c1C(O)CC2 (stereo not drawn) [Compound 497]
[1]
  IC50: > 1000 nM

## O=S(=O)(c1ccc(Oc2cc(F)cc(Cl)c2)c(CCO)c1)C(F)(F)F [Compound 127]
[1]
  IC50: > 1000 nM

## O=S1(=O)c2ccc(Oc3cc(F)cc(Cl)c3)c(C(F)F)c2C(O)C1(F)F (stereo not drawn) [Compound 364]
[2]
  IC50: < 50 nM

## CS(=O)(=O)c1ccc(Nc2cncc(Cl)c2)c2c1C(O)CC2 (stereo not drawn) [Compound 499]
[1]
  IC50: > 1000 nM

## O=S(=O)(c1ccc(OCC2CC2)c2c1C(O)CC2)C(F)(F)F (stereo not drawn) [Compound 597]
[1]
  IC50: > 1000 nM

## C/C(=N\O)c1c(S(=O)(=O)C(F)(F)F)ccc(Oc2cc(F)cc(Cl)c2)c1Br [Compound 106]
[1]
  IC50: 250 to 1000 nM

## O=S1(=O)c2ccc(Oc3cncc(Cl)c3)c(C(F)F)c2C(O)C1(F)F (stereo not drawn) [Compound 381]
[2]
  IC50: 50 to 249 nM

## O=S(=O)(c1ccc(OCCCO)c2c1C(O)CC2)C(F)(F)F (stereo not drawn) [Compound 611]
[1]
  IC50: > 1000 nM

## O=S(=O)(c1ccc(Oc2cc(F)cc(Cl)c2)c(Cl)c1)C(F)(F)F [Compound 128]
[2]
  IC50: 50 to 249 nM

## NC(=O)Cc1ccc(S(=O)(=O)C(F)(F)F)c2c1CC(F)(F)C2O (stereo not drawn) [Compound 526]
[1]
  IC50: > 1000 nM

## CS(=O)(=O)c1ccc(Oc2cncc(C#N)c2)c2c1[C@H](O)[C@H](F)[C@@H]2F [Compound 333]
[1]
  IC50: 50 to 249 nM

## O=C1c2c(S(=O)(=O)C(F)F)ccc(Oc3ccc(F)c(Br)c3)c2CC1(F)F [Compound 193]
[1]
  IC50: 250 to 1000 nM

## CS(=O)(=O)c1ccc(N2CCC[C@H](O)C2)c2c1[C@H](O)C(F)(F)[C@@H]2F [Compound 484, (S)-1-((1S,3R)-2,2,3-trifluoro-1-hydroxy-7-(methylsulfonyl)-2,3-dihydro-1H-inden-4-yl)piperidin-3-ol]
[1]
  IC50: > 1000 nM

## N#Cc1c(Oc2cc(F)cc(Cl)c2)ccc2c1C(O)C(F)(F)S2(=O)=O (stereo not drawn) [Compound 356]
[2]
  IC50: < 50 nM

## CC(Oc1ccc(S(=O)(=O)C(F)(F)F)c2c1CC(F)(F)C2O)C(N)=O (stereo not drawn) [Compound 649]
[1]
  IC50: > 1000 nM

## O=S(=O)(c1ccc(-c2cn[nH]c2)c2c1[C@H](O)C(F)(F)C2)C(F)(F)F [Compound 560]
[1]
  IC50: > 1000 nM

## COc1ccc(I)c2c1CC(F)(F)C2O (stereo not drawn) [Compound 679]
[1]
  IC50: > 1000 nM

## CN1CCC(Oc2ccc(S(=O)(=O)C(F)(F)F)c3c2CC(F)(F)C3O)C1 (stereo not drawn) [Compound 642]
[1]
  IC50: > 1000 nM

## CC1(C)C(O)c2c(ccc(Oc3cc(F)cc(Cl)c3)c2Br)S1(=O)=O (stereo not drawn) [Compound 406]
[2]
  IC50: > 1000 nM

## N#Cc1cc(Oc2ccc(S(=O)(=O)C(F)F)c3c2CC(F)(F)C3=O)ccc1F [Compound 199]
[1]
  IC50: > 1000 nM

## OC1c2c(I)cc(I)c(OCC(F)F)c2CC1F (stereo not drawn) [Compound 667]
[1]
  IC50: > 1000 nM

## N#CN=S(=O)(c1ccc(Oc2cc(F)cc(C#N)c2)c2c1[C@H](O)[C@H](F)C2)C(F)F (stereo partly drawn) [Compound 297]
[1]
  IC50: > 1000 nM

## O[C@H]1c2c(OCC(F)F)ccc(C(F)(F)F)c2[C@@H](F)C1(F)F [Compound 689]
[1]
  IC50: > 1000 nM

## COC1Cc2c(OCC(F)F)ccc(C(F)(F)F)c2C1O (stereo not drawn) [Compound 668]
[1]
  IC50: > 1000 nM

## CC(C)(C)OC(=O)N1CC(Oc2ccc(S(=O)(=O)C(F)(F)F)c3c2CC(F)(F)[C@H]3O)C1 [Compound 791]
[1]
  IC50: > 1000 nM

## O=S(=O)(c1ccc(Oc2cc(F)cc(Cl)c2)c2c1COC2O)C(F)F (stereo not drawn) [Compound 88]
[1]
  IC50: > 1000 nM

## N=S1(=O)c2ccc(Oc3cc(F)cc(F)c3)c(Br)c2C(O)C1(F)F (stereo not drawn) [Compound 378]
[1]
  IC50: 50 to 249 nM

## N#Cc1cc(F)cc(Oc2ccc3c(c2C#N)C(O)(C(F)(F)F)CS3(=O)=O)c1 (stereo not drawn) [Compound 450]
[1]
  IC50: > 1000 nM

## CS(=O)(=O)c1ccc(Nc2ccc(F)cc2)c2c1C(O)C(F)(F)C2 (stereo not drawn) [Compound 501]
[1]
  IC50: > 1000 nM

## N#Cc1c(Oc2cc(F)cc(Cl)c2)ccc(S(=O)(=O)C(F)(F)F)c1NCCO [Compound 154]
[1]
  IC50: > 1000 nM

## N#Cc1ccc(F)c2c1CC(F)(F)C2O (stereo not drawn) [Compound 519]
[1]
  IC50: > 1000 nM

## O=C1c2c(ccc(Oc3cc(F)cc(Cl)c3)c2Br)S(=O)(=O)C12CC2 [Compound 404]
[1]
  IC50: > 1000 nM

## O/N=C1/c2c(C(F)(F)F)ccc(OCCCF)c2[C@@H](F)C1(F)F [Compound 700]
[1]
  IC50: 50 to 249 nM

## NC1CS(=O)(=O)c2ccc(Oc3cc(F)cc(F)c3)c(C(F)F)c21 (stereo not drawn) [Compound 367]
[1]
  IC50: > 1000 nM

## CS(=O)(=O)c1ccc(O[C@H]2CC[C@H](C#N)CC2)c2c1[C@H](O)C(F)(F)[C@@H]2F [Compound 757]
[1]
  IC50: > 1000 nM

## O[C@H]1c2c(C(F)(F)F)ccc(OC3CC(F)(F)C3)c2CC1(F)F [Compound 587]
[1]
  IC50: < 50 nM

## N#Cc1cc(F)cc(Oc2ccc(Br)c3c2C(F)(F)C(F)(F)C3)c1 [Compound 248]
[1]
  IC50: > 1000 nM

## NC1c2c(ccc(Oc3cc(F)cc(F)c3)c2C(F)F)S(=O)(=O)C1F (stereo not drawn) [Compound 366]
[1]
  IC50: > 1000 nM

## Cc1c(Oc2cc(F)cc(C#N)c2)ccc(S(=O)(=O)C(F)(F)F)c1/C=C/C(=O)NCc1ccccc1 [Compound 149]
[1]
  IC50: > 1000 nM

## O=S(=O)(c1ccc(Oc2cccn3ccnc23)c2c1C(O)C(F)(F)C2)C(F)(F)F (stereo not drawn) [Compound 246]
[1]
  IC50: > 1000 nM

## O=S(=O)(c1ccc(OC2CNC2)c2c1[C@H](O)C(F)(F)C2)C(F)(F)F [Compound 792]
[1]
  IC50: > 1000 nM

## O=S(=O)(c1ccc(Oc2cncc(Cl)c2)c2c1[C@H](O)CC2)C(F)(F)F [Compound 184]
[1]
  IC50: 250 to 1000 nM

## CS(=O)(=O)N=S(=O)(CF)c1ccc(Oc2cc(F)cc(C#N)c2)c2c1[C@H](O)C(F)(F)C2 (stereo partly drawn) [Compound 284]
[1]
  IC50: > 1000 nM

## O=S(=O)(c1ccc(Cn2nccn2)c2c1[C@H](O)C(F)(F)C2)C(F)(F)F [Compound 535]
[1]
  IC50: > 1000 nM

## CS(=O)(=O)c1ccc(Oc2cncc(F)c2)c2c1[C@H](O)C(F)(F)[C@@H]2F [Compound 329]
[1]
  IC50: < 50 nM

## Cn1cc(-c2ccc(S(=O)(=O)C(F)(F)F)c3c2CC(F)(F)[C@H]3O)cn1 [Compound 566]
[1]
  IC50: > 1000 nM

## COc1ccc(S(C)(=O)=O)c2c1CCC2O (stereo not drawn) [Compound 776]
[1]
  IC50: > 1000 nM

## N#Cc1cncc(Oc2ccc3c(c2C(F)F)C(O)C(F)(F)S3(=O)=O)c1 (stereo not drawn) [Compound 383]
[2]
  IC50: 50 to 249 nM

## Cc1cc(C)cc(Oc2ccc(S(=O)(=O)C(F)(F)F)cc2Br)c1 [Compound 173]
[1]
  IC50: > 1000 nM

## O=S(=O)(c1ccc(Oc2cc(F)cc(Cl)c2)c(CCCO)c1)C(F)(F)F [Compound 126]
[1]
  IC50: > 1000 nM

## O=S(=O)(c1ccc(Oc2cc(F)cc(F)c2)c2c1C(CO)CC2)C(F)F (stereo not drawn) [Compound 24]
[1]
  IC50: 250 to 1000 nM

## CC(Oc1ccc(S(=O)(=O)C(F)(F)F)c2c1CC(F)(F)C2O)C(=O)N(C)C (stereo not drawn) [Compound 647]
[1]
  IC50: > 1000 nM

## CCCc1ccc(S(=O)(=O)C(F)(F)F)c2c1CCC2O (stereo not drawn) [Compound 515]
[1]
  IC50: > 1000 nM

## CS(=O)(=O)c1ccc(OCCC2(C#N)CC2)c2c1[C@H](O)C(F)(F)[C@@H]2F [Compound 772]
[1]
  IC50: > 1000 nM

## N#Cc1cc(F)cc(Oc2ccc(S(=O)(=O)C(F)(F)F)c3c2CC(F)C3N)c1 (stereo not drawn) [Compound 268]
[1]
  IC50: > 1000 nM

## CCOc1ccc(C#N)c2c1CC(F)(F)[C@H]2O [Compound 674]
[1]
  IC50: > 1000 nM

## Cc1c(Cl)cccc1Oc1ccc(S(=O)(=O)C(F)(F)F)cc1Br [Compound 171]
[1]
  IC50: > 1000 nM

## CC(Oc1ccc(S(=O)(=O)C(F)(F)F)c2c1CC(F)(F)C2O)c1ccccc1 (stereo not drawn) [Compound 664]
[1]
  IC50: > 1000 nM

## COc1ccc(S(C)(=O)=O)c2c1CC(F)(F)[C@H]2O [Compound 777]
[1]
  IC50: > 1000 nM

## CCOc1ccc(C(F)(F)F)c2c1CC[C@H]2O [Compound 673]
[1]
  IC50: > 1000 nM

## COC(C)COc1ccc(S(=O)(=O)C(F)(F)F)c2c1CCC2O (stereo not drawn) [Compound 625]
[1]
  IC50: > 1000 nM

## N#Cc1cc(F)cc(Oc2ccc3c(c2C(F)F)[C@H](N)C(F)(F)S3(=O)=O)c1 [Compound 384]
[1]
  IC50: > 1000 nM

## CC(C)Oc1ccc(S(=O)(=O)C(F)(F)F)c2c1CCC2O (stereo not drawn) [Compound 592]
[1]
  IC50: > 1000 nM

## O=C1CC[C@@H](Oc2ccc(S(=O)(=O)C(F)(F)F)c3c2CC(F)(F)[C@H]3O)CN1 [Compound 720]
[1]
  IC50: > 1000 nM

## CS(=O)(=O)c1ccc(Oc2cncc(C#N)c2)c2c1[C@H](O)C(F)(F)[C@H]2F [Compound 343]
[1]
  IC50: > 1000 nM

## CS(=O)(=O)c1ccc(Oc2cc(F)cc(C#N)c2)c2c1C(O)CCC2 (stereo not drawn) [Compound 95]
[1]
  IC50: > 1000 nM

## CC(=O)N1CCCC(Oc2ccc(S(=O)(=O)C(F)(F)F)c3c2CC(F)(F)C3O)C1 (stereo not drawn) [Compound 627]
[1]
  IC50: > 1000 nM
